This note sets out measurements from ChEMBL document CHEMBL5050834, “Cyclic trex1 inhibitors” (2021).

A short description of one experiment: Inhibition of TREX1 in human THP1-Dual cells assessed as activation of cGAS-STING pathway measured by ISRE luciferase reporter gene assay. The class given is cell-based. A general note: A reporter such as luciferase makes a cellular process visible.
As to `N[C@@H]1C[C@H]2C(=O)N([C@H](CCc3nnn[nH]3)C(=O)NCc3ccc(Cl)c(Cl)c3F)CCC(CCc3ccccc3)N2C1` (stereo partly specified), the EC50 stood at 1000 nM.
The same measure, in the same setting: as for `N[C@@H]1C[C@H]2C(=O)N([C@H](CCC(=O)O)C(=O)NCc3ccc(Cl)c(Cl)c3F)CCC(CCc3ccccc3)N2C1` (stereo partly specified), the figure is 1000 nM.

The nature of another experiment: Inhibition of human TREX1 exonuclease activity using labeled DNA oligonucleotide as substrate incubated for 30 mins and measured after 45 mins by fluorescence assay.
Take `N[C@@H]1C[C@H]2C(=O)N([C@H](CCc3nnn[nH]3)C(=O)NCc3ccc(Cl)c(Cl)c3F)CCC(CCc3ccccc3)N2C1` (stereo partly specified): the IC50 is < 1000 nM.
On the same count and under the same terms, as for `N[C@@H]1C[C@H]2C(=O)N([C@H](CCC(=O)O)C(=O)NCc3ccc(Cl)c(Cl)c3F)CCC(CCc3ccccc3)N2C1` (stereo partly specified), the figure is < 1000 nM; as for `CC(C)C[C@H](C(=O)N[C@@H](C)c1ccccc1)N1CCC(CCc2ccccc2)N2C[C@H](N)C[C@H]2C1=O` (stereo partly specified), “in the range around 1000 nM”.
Take `CC(C)Oc1c(CNC(=O)[C@@H](CCC#N)N2CCC(CCc3ccccc3)N3C[C@H](N)C[C@H]3C2=O)ccc(Cl)c1Cl` (stereo partly specified): the IC50 is < 1000 nM.
Still for that read-out and setting: as for `N[C@@H]1C[C@H]2C(=O)N([C@H](CCC(=O)O)C(=O)NCc3ccc(Cl)c(Cl)c3)CCC(CCOc3ccccc3)N2C1` (stereo partly specified), the entry is “in the range around 1000 nM”; as for `N[C@@H]1C[C@H]2C(=O)N([C@H](CCC(=O)O)C(=O)NCc3cc(Cl)c(Cl)cn3)CCC(CCc3ccccc3)N2C1` (stereo partly specified), < 1000 nM.
The same measure, in the same setting: as for `COc1cc(Cl)c(Cl)cc1CNC(=O)[C@@H](CCC(=O)O)N1CCC(CCc2ccccc2)N2C[C@H](N)C[C@H]2C1=O` (stereo partly specified), the figure is < 1000 nM; as for `N[C@@H]1C[C@H]2C(=O)N([C@@H](CCC(=O)O)C(=O)NCc3ccc(Cl)c(Cl)c3)CCC(CCc3ccccc3)N2C1` (stereo partly specified), < 1000 nM.
On the same count and under the same terms, to `CN(Cc1ccc(Cl)c(Cl)c1)C(=O)[C@@H](CC#N)N1CCC(CCc2ccccc2)N2C[C@H](N)C[C@H]2C1=O` (stereo partly specified) belongs < 1000 nM; to `N#CC[C@H](C(=O)N1CCc2cc(Cl)c(Cl)cc2C1)N1CCC(CCc2ccccc2)N2C[C@H](N)C[C@H]2C1=O` (stereo partly specified), “in the range around 1000 nM”; to `Cc1ccc(OCC2CCN([C@H](CCC(=O)O)C(=O)NCc3ccc(Cl)c(Cl)c3)C(=O)[C@@H]3C[C@@H](N)CN23)cc1` (stereo partly specified), “in the range around 1000 nM”.
Take `CC(C)OC(=O)CC[C@H](C(=O)NCc1ccc(Cl)c(Cl)c1)N1CCC(CCc2ccccc2)N2C[C@H](N)C[C@H]2C1=O` (stereo partly specified): the half-maximal inhibitory concentration (IC50) is < 1000 nM.
Still for that read-out and setting: as for `N[C@@H]1C[C@H]2C(=O)N([C@H](CCC(=O)O)C(=O)NCc3ccc(Cl)c(Cl)c3)CCC(COc3cccc(F)c3)N2C1` (stereo partly specified), the figure is < 1000 nM.
As to `N[C@@H]1C[C@H]2C(=O)N([C@@H]3CCCN(Cc4ccc(Cl)c(Cl)c4)C3=O)CCC(CCc3ccccc3)N2C1` (stereo partly specified), the half-maximal inhibitory concentration (IC50) was < 1000 nM.
Same read-out and setting: to `CC(C)C[C@H](C(=O)NCc1ccc(Cl)c(Cl)c1)N1CCC(C[S+]([O-])c2ccccc2)N2C[C@H](N)C[C@H]2C1=O` (stereo partly specified) belongs < 1000 nM; to `CC(C)C[C@H](C(=O)N(C)Cc1ccc(Cl)c(Cl)c1)N1CCC(CCc2ccccc2)N2C[C@H](N)C[C@H]2C1=O` (stereo partly specified), < 1000 nM.
Still for that read-out and setting: to `N#CCC[C@H](C(=O)NCc1ccc(Cl)c(Cl)c1)N1CCC(COc2cccc(F)c2)N2C[C@H](N)C[C@H]2C1=O` (stereo partly specified) belongs < 1000 nM.
Same read-out and setting: as for `N[C@@H]1C[C@H]2C(=O)N([C@H](CCC(=O)NO)C(=O)NCc3ccc(Cl)c(Cl)c3)CCC(COc3ccc(F)cc3)N2C1` (stereo partly specified), the figure is < 1000 nM; as for `CC(C)Oc1c(CNC(=O)[C@@H](CCC(=O)O)N2CCC(CCc3ccccc3)N3C[C@H](N)C[C@H]3C2=O)ccc(Cl)c1Cl` (stereo partly specified), < 1000 nM; as for `N#CC[C@H](C(=O)N1CCOC[C@H]1c1ccccc1)N1CCC(CCc2ccccc2)N2C[C@H](N)C[C@H]2C1=O` (stereo partly specified), “in the range around 1000 nM”.
Take `N[C@@H]1C[C@H]2C(=O)N([C@H]3CCN(Cc4ccc(Cl)c(Cl)c4)C3=O)CCC(CCc3ccccc3)N2C1` (stereo partly specified): the half-inhibitory concentration (IC50) was < 1000 nM.
As for `N[C@@H]1C[C@H]2C(=O)N([C@H](CCNS(=O)(=O)C3CC3)C(=O)NCc3ccc(Cl)c(Cl)c3)CCC(CCc3ccccc3)N2C1` (stereo partly specified), the IC50 is < 1000 nM.
Consider `CC(C)C[C@H](C(=O)NCc1ccc(Cl)c(Cl)c1)N1CCC(CS(=O)(=O)c2ccccc2)N2C[C@H](N)C[C@H]2C1=O` (stereo partly specified), for which the IC50 entry was “in the range around 1000 nM”.
Same read-out and setting: as for `N[C@@H]1C[C@H]2C(=O)N([C@H](CSc3ccccc3O)C(=O)NCc3ccc(Cl)c(Cl)c3)CCC(CCc3ccccc3)N2C1` (stereo partly specified), the figure is < 1000 nM.
With `N[C@@H]1C[C@H]2C(=O)N([C@H](CCC(=O)O)C(=O)NCc3ccc(Cl)c(Cl)c3)CCC(COc3ccc(Cl)cc3)N2C1` (stereo partly specified), the half-maximal inhibitory concentration (IC50) was < 1000 nM.
Same read-out and setting: as for `Cc1nnc(CC[C@H](C(=O)NCc2ccc(Cl)c(Cl)c2F)N2CCC(CCc3ccccc3)N3C[C@H](N)C[C@H]3C2=O)[nH]1` (stereo partly specified), the figure is < 1000 nM; as for `N=C(N)NCCC[C@H](C(=O)NCc1ccc(Cl)c(Cl)c1)N1CCC(CCc2ccccc2)N2C[C@H](N)C[C@H]2C1=O` (stereo partly specified), < 1000 nM.
For `NC(=O)C[C@H](C(=O)NCc1ccc(Cl)c(Cl)c1)N1CCC(CCc2ccccc2)N2C[C@H](N)C[C@H]2C1=O` (stereo partly specified), the concentration for half-maximal inhibition (IC50) was < 1000 nM.
On to `CCOC(=O)N[C@@H]1C[C@H]2C(=O)N([C@H](CCC(=O)O)C(=O)NCc3ccc(Cl)c(Cl)c3)CCC(CCc3ccccc3)N2C1` (stereo partly specified), for which the IC50 result was “in the range around 10000 nM”.
For `N[C@@H]1C[C@H]2C(=O)N([C@H](CS(=O)(=O)c3ccccc3O)C(=O)NCc3ccc(Cl)c(Cl)c3)CCC(CCc3ccccc3)N2C1` (stereo partly specified), the IC50 was < 1000 nM.
On the same count and under the same terms, as for `CCOC(=O)CC[C@H](C(=O)N1CCCC[C@H]1c1ccc(Cl)c(Cl)c1)N1CCC(CCc2ccccc2)N2C[C@H](N)C[C@H]2C1=O` (stereo partly specified), the figure is < 1000 nM; as for `CC(C)C[C@H](CNS(=O)(=O)c1ccc(Cl)c(Cl)c1)N1CCC(CCc2ccccc2)N2C[C@H](N)C[C@H]2C1=O` (stereo partly specified), < 1000 nM.
On the same count and under the same terms, to `CCOC(=O)CC[C@H](C(=O)N1CCC[C@H]1c1ccc(Cl)c(Cl)c1)N1CCC(CCc2ccccc2)N2C[C@H](N)C[C@H]2C1=O` (mixture of isomers) belongs < 1000 nM; to `N[C@@H]1C[C@H]2C(=O)N([C@H](CCC(=O)O)C(=O)NCc3ccc(Cl)c(Cl)c3)CCC(COc3ccc(F)cc3)N2C1` (stereo partly specified), < 1000 nM.
`CCOC(=O)CC[C@H](C(=O)NCc1cc(Cl)c(Cl)cc1F)N1CCC(CCc2ccccc2)N2C[C@H](N)C[C@H]2C1=O` (stereo partly specified): the IC50 is < 1000 nM.
The same measure, in the same setting: to `N#CCC[C@H](C(=O)NCc1ccc(Cl)c(Cl)[n+]1[O-])N1CCC(CCc2ccccc2)N2C[C@H](N)C[C@H]2C1=O` (stereo partly specified) belongs < 1000 nM; to `N[C@@H]1C[C@H]2C(=O)N([C@@H]3CCCN(S(=O)(=O)c4ccccc4)C3)CCC(CCc3ccccc3)N2C1` (stereo partly specified), “in the range around 10000 nM”.
Take `CC(C)C[C@H](C(=O)NCc1ccc(C(F)(F)F)c(F)c1)N1CCC(CCc2ccccc2)N2C[C@H](N)C[C@H]2C1=O` (stereo partly specified): the 50% inhibitory concentration (IC50) was < 1000 nM.
On the same count and under the same terms, to `COc1ccc(OCC2CCN([C@H](CCC(=O)O)C(=O)NCc3ccc(Cl)c(Cl)c3)C(=O)[C@@H]3C[C@@H](N)CN23)cc1` (stereo partly specified) belongs “in the range around 1000 nM”.
Same read-out and setting: as for `CC(C)Oc1c(CNC(=O)[C@@H](CCc2nnn[nH]2)N2CCC(CCc3ccccc3)N3C[C@H](N)C[C@H]3C2=O)ccc(Cl)c1Cl` (stereo partly specified), the figure is < 1000 nM; as for `N[C@@H]1C[C@H]2C(=O)N([C@H](CCC(=O)O)C(=O)NCc3ccc(Cl)c(Cl)c3)CCC(COc3ccccc3F)N2C1` (stereo partly specified), < 1000 nM; as for `Cc1ccc(CNC(=O)[C@@H](CC(C)C)N2CCC(CCc3ccccc3)N3C[C@H](N)C[C@H]3C2=O)cc1Cl` (stereo partly specified), < 1000 nM.
On the same count and under the same terms, as for `N[C@@H]1C[C@H]2C(=O)N([C@H](CCC(=O)O)C(=O)NCc3ccc(Cl)c(Cl)c3)CCC(COc3cccc(Cl)c3)N2C1` (stereo partly specified), the figure is < 1000 nM; as for `N[C@@H]1C[C@H]2C(=O)N([C@H](CCC(=O)O)C(=O)NCc3ccc(Cl)c(Cl)n3)CCC(CCc3ccccc3)N2C1` (stereo partly specified), < 1000 nM.
With `N[C@@H]1C[C@H]2C(=O)N(c3cccn(Cc4ccc(Cl)c(Cl)c4)c3=O)CCC(CCc3ccccc3)N2C1` (stereo partly specified), the half-maximal inhibitory concentration (IC50) is < 1000 nM.
Same read-out and setting: as for `N[C@@H]1C[C@H]2C(=O)N([C@H](CCC(=O)O)C(=O)NCc3ccc(Cl)cn3)CCC(CCc3ccccc3)N2C1` (stereo partly specified), the figure is < 1000 nM; as for `COC(=O)CC[C@H](C(=O)NCc1ccc(Cl)c(Cl)c1)N1CCC(CCc2ccccc2)N2C[C@H](N)C[C@H]2C1=O` (stereo partly specified), < 1000 nM; as for `N#CC[C@H](C(=O)N1CCOC[C@@H]1c1ccccc1)N1CCC(CCc2ccccc2)N2C[C@H](N)C[C@H]2C1=O` (stereo partly specified), “in the range around 10000 nM”.
Same read-out and setting: to `N[C@@H]1C[C@H]2C(=O)N([C@H](CCC(=O)O)C(=O)N3CCOC[C@H]3c3ccc(Cl)c(Cl)c3)CCC(CCc3ccccc3)N2C1` (stereo partly specified) belongs < 1000 nM; to `COC(=O)CC[C@H](C(=O)NCc1ccc(Cl)cn1)N1CCC(CCc2ccccc2)N2C[C@H](N)C[C@H]2C1=O` (stereo partly specified), < 1000 nM.
For the compound `CS(=O)(=O)NCC[C@H](C(=O)NCc1ccc(Cl)c(Cl)c1)N1CCC(CCc2ccccc2)N2C[C@H](N)C[C@H]2C1=O` (stereo partly specified), the concentration for half-maximal inhibition (IC50) was < 1000 nM.
As for `CC(C)C[C@H](C(=O)NCc1ccc(Cl)c(C(F)(F)F)c1)N1CCC(CCc2ccccc2)N2C[C@H](N)C[C@H]2C1=O` (stereo partly specified), the half-maximal inhibitory concentration (IC50) was < 1000 nM.
Regarding `COC(=O)CC[C@H](C(=O)NCc1ccc(Cl)c(Cl)c1)N1CCC(COc2ccc(F)cc2)N2C[C@H](N)C[C@H]2C1=O` (mixture of isomers), the IC50 is < 1000 nM.
As to `NC(=O)CC[C@H](C(=O)NCc1ccc(Cl)c(Cl)c1F)N1CCC(CCc2ccccc2)N2C[C@H](N)C[C@H]2C1=O` (stereo partly specified), the 50% inhibitory concentration (IC50) is < 1000 nM.
Consider `N#CC[C@H](C(=O)NCc1ccc(Cl)cn1)N1CCC(CCc2ccccc2)N2C[C@H](N)C[C@H]2C1=O` (stereo partly specified), for which the half-maximal inhibitory concentration (IC50) was < 1000 nM.
On the same count and under the same terms, as for `N#CC[C@H](C(=O)NCc1ccc(Cl)c(Cl)n1)N1CCC(CCc2ccccc2)N2C[C@H](N)C[C@H]2C1=O` (stereo partly specified), the figure is < 1000 nM; as for `CC(C)C[C@H](CNC(=O)c1ccc(Cl)c(Cl)c1)N1CCC(CCc2ccccc2)N2C[C@H](N)C[C@H]2C1=O` (stereo partly specified), “in the range around 1000 nM”; as for `COc1c(CNC(=O)[C@@H](CCC(N)=O)N2CCC(CCc3ccccc3)N3C[C@H](N)C[C@H]3C2=O)ccc(Cl)c1Cl` (stereo partly specified), < 1000 nM.
The same measure, in the same setting: to `N#CC[C@H](C(=O)NCc1ccc(Cl)c(C(F)(F)F)c1)N1CCC(CCc2ccccc2)N2C[C@H](N)C[C@H]2C1=O` (stereo partly specified) belongs < 1000 nM.

By EC50 is commonly meant the concentration that produces a half-maximal response. In general, IC50 refers to the midpoint of a concentration-inhibition curve. Read a high IC50 as lower potency.
